Assays:
GSNOR = biological target: T1, GSNOR (Homo sapiens, UniProt P11766); test: GSNOR assay (inhibition of GSNOR activity, NADH absorbance at 340 nm); assay type: biochemical; settings: printed as 'about <'; 0.240 mM GSNO, 0.300 mM NADH, pH 7.4, 25° C.
T1 construct: made in house; host or cells: E. coli (arabinose-induced)
Description: GSNOR expression and purification is described in Biochemistry 2000, 39, 10720-10729.
GSNOR Fermentation: Pre-cultures were grown from stabs of a GSNOR glycerol stock in 2XYT media containing 100 ug/ml ampicillin after an overnight incubation at 37° C. Cells were then added to fresh 2XYT (4 L) containing ampicillin and grown to an OD (A600) of 0.6-0.9 at 37° C. before induction. GSNOR expression was induced with 0.1% arabinose in an overnight incubation at 20° C.
GSNOR Purification: E. coli cell paste was lysed by nitrogen cavitation and the clarified lysate purified by Ni affinity chromatography on an AKTA FPLC (Amersham Pharmacia). The column was eluted in 20 mM Tris pH 8.0/250 mM NaCl with a 0-500 mM imidazole gradient. Eluted GSNOR fractions containing the Smt-GSNOR fusion were digested overnight with Ulp-1 at 4° C. to remove the affinity tag then re-run on the Ni column under the same conditions. GSNOR was recovered in the flowthrough fraction and for crystallography is further purified by Q-Sepharose and Heparin flowthrough chromatography in 20 mM Tris pH 8.0, 1 mM DTT, 10 uM ZnSO4.
GSNOR Assay: GSNO and enzyme/NADH Solutions are made up fresh each day. The solutions are filtered and allowed to warm to room temperature. GSNO solution: 100 mM NaPO4 (pH 7.4), 0.480 mM GSNO. 396 μL of GSNO Solution is added to a cuvette followed by 8 μL of test compound in DMSO (or DMSO only for full reaction control) and mixed with the pipette tip. Compounds to be tested are made up at a stock concentration of 10 mM in 100% DMSO. 2 fold serial dilutions are done in 100% DMSO. 8 μL of each dilution are added to an assay so that the final concentration of DMSO in the assay is 1%. The concentrations of compounds tested range from 100 to 0.003 μM. Enzyme/NADH solution: 100 mM NaPO4 (pH 7.4), 0.600 mM NADH, 1.0 μg/mL GSNO Reductase. 396 μL of the Enzyme/NADH solution is added to the cuvette to start the reaction. The cuvette is placed in the Cary 3E UV/Visible Spectrophotometer and the change in 340 nm absorbance/min at 25° C. is recorded for 3 minutes. The assays are done in triplicate for each compound concentration. IC50's for each compound are calculated using the standard curve analysis in the Enzyme Kinetics Module of SigmaPlot.
Final assay conditions: 100 mM NaPO4, pH 7.4, 0.240 mM GSNO, 0.300 mM NADH, 0.5 μg/mL GSNO Reductase, and 1% DMSO. Final volume: 800 μL/cuvette.

[1] = tested on: cigarette smoke-induced COPD (subchronic 11 day); test: Subchronic (11 day) cigarette smoke exposure COPD model; assay type: in vivo, female C57Bl/6 mice; settings: subchronic 11 day model; roflumilast 5 mg/kg/day
Description: The efficacy of GSNOR inhibitors was assessed in a mouse model of chronic obstructive pulmonary disease (COPD) induced by short duration (4 days or 11 days) of exposure to cigarette smoke. Infiltration of inflammatory cells into the bronchoalveolar lavage fluid (BALF) and BALF levels of chemokines involved in inflammation and tissue turnover/repair were measured to assess the influences of GSNOR inhibitors on some of the early events associated with the initiation and progression of COPD.
Efficacy of GSNOR inhibitors against COPD was explored using acute (4 day) and subchronic (11 day) models of cigarette smoke-induced COPD in mice. […] In animal models, changes in lung pathology are only evident after extended (several months) duration of exposure to cigarette smoke, thus making chronic models prohibitive as effective screening tools. More recently, models exploring inflammatory responses after short duration (2 weeks or less) of smoke exposure in mice have been utilized as tools for screening efficacy and mechanisms of action of novel therapeutics against COPD. The key roles of inflammation in the initiation and progression of COPD, make these short duration models relevant for initial tests of efficacy of novel therapeutics.
Subchronic (11 Day) Smoke Exposure Model: Female C57Bl/6 mice (N=10 per group) were exposed to cigarette smoke generated from Marlboro 100 cigarettes without filters. Exposure times were 25 min. on study day 1, 35 min. on study day 2, and 45 min. on study days 3 to 11. GSNOR inhibitors were administered one hour prior to smoke exposure on each day. GSNOR inhibitors were dosed orally at 1 to 10 mg/kg/day for 11 days. The effects of GSNOR inhibitors were assessed by quantitating the number of total cells, and leukocytes differentials in the BALF via light microscopy at 24 h after the last exposure. The effect of GSNOR inhibitors were compared to vehicle treated controls and expressed as percent inhibition of the cigarette smoke induced increases in BALF cell numbers. Roflumilast was used as the positive control for the study and was dosed at 5 mg/kg/day. A group of naïve mice (N=10) was exposed to air and dosed with vehicle as a negative control for the study.

[2] = Mouse pharmacokinetic (PK) study; assay type: in vivo, male BALB/c mice; settings: male, BALB/c, plasma, po, 10 mg/kg, IV 2 mg/kg, read-out: oral bioavailability (% F)
Source text: The mouse was used to determine the pharmacokinetics of compounds of the invention. This species is widely used to assess the bioavailability of compounds by administering both oral (PO) and intravenous (IV) test articles. Efficacy of the compounds of the invention was compared by assessing plasma exposure in male BALB/c mice either via IV or PO administration at the times of peak activity.
Compounds of the invention were reconstituted in a phosphate buffered saline (PBS)/10% Solutol (HS 15) clear solution resulting in a concentration of 0.2 mg/mL and administered to mice (2 mg/kg) as a single IV dose. Animals were dosed via the lateral tail vein. Blood samples were collected at designated time points (0.083, 0.25, 0.5, 1, 2, 4, 8, 16, 24 hours) by cardiac puncture under isoflurane anesthesia (up to 1 mL blood per animal). The blood was collected into tubes containing Li-Heparin. The blood samples were kept on ice until centrifugation within approximately 30 minutes of collection. The plasma was transferred into labeled polypropylene tubes and frozen at −70° C. until analyzed by LC/MS/MS.
The compounds of the invention were reconstituted in 40% Propylene Glycol/40% Propylene Carbonate/20% of a 5% Sucrose clear solution resulting in a concentration of 2 mg/mL and administered to mice (10 mg/kg) as a single oral dose via gavage. Blood samples were collected at 0.25, 0.5, 1, 2, 4, 8, 12, 16, 20 and 24 hours post dose by cardiac puncture under isoflurane anesthesia. The blood was collected in tubes containing Li-Heparin. […] The plasma was transferred into labeled polypropylene tubes and frozen at −70° C. until analyzed by LC/MS/MS.
Plasma samples at each timepoint were analyzed using a LC-MS/MS with a lower limit of quantification (LLOQ) of 1 ng/mL. Plasma was analyzed to determine the amount of the compound of the invention in each sample and regression curves generated for each compounds of the invention in the relevant matrixes. […]
In addition to the above PK parameters, bioavailability (% F) was calculated.

[3] = tested on: acute dextran sodium sulfate (DSS)-induced IBD; test: Acute prophylactic model of DSS-induced IBD in mice; assay type: in vivo, male C57Bl/6 mice; settings: oral 10 mg/kg/day for 10 consecutive days, prophylactic
Source text: Acute and chronic models of dextran sodium sulfate (DSS)-induced IBD in mice were used to explore efficacy of GSNORi against this disease. Acute and chronic DSS-induced IBD are widely used and well characterized models that induce pathological changes in the colon similar to those observed in the human disease. In these models and in human disease, epithelial cells within the crypts of the colon are disrupted, leading to dysfunction of the epithelial barrier and the ensuing tissue inflammation, edema, and ulceration. GSNORi therapy may benefit IBD by restoring s-nitrosoglutathione (GSNO) levels, and thus prevent or reverse the epithelial barrier dysfunction. Experimental IBD was induced by administration of DSS in the drinking water of male C57Bl/6 mice (N=8 to 10 mice per group) for 6 consecutive days. GSNORi was dosed orally at doses of 0.1 to 10 mg/kg/day for 10 days starting two days prior to and continuing two days post DSS exposure. Two days post DSS exposure, the effect of GSNORi was assessed in a blinded fashion via endoscopy and histopathology using a five point scale ranging from a score=0 (normal tissue) through a score=4 (ulcerative tissue damage and marked pathological changes). Levels of circulating cytokines involved in inflammatory pathways were also assessed. The effect of GSNORi was compared to vehicle treated controls. The corticosteroid, prednisolone, was used as the positive control in this study and was administered daily at 3 mg/kg/day via oral dosing. Naïve mice (N=5) were also assessed as a normal tissue control.

T1 sequence (P11766 whole entry): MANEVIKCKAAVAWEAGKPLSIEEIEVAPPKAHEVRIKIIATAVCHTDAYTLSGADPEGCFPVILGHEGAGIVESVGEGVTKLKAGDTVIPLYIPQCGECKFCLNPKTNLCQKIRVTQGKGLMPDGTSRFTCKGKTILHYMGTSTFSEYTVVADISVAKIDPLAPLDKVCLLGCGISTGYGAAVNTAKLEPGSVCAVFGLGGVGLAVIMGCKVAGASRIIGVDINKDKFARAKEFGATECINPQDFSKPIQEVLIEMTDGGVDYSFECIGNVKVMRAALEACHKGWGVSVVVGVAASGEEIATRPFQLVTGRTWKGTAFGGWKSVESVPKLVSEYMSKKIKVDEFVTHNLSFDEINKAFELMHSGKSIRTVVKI

Row | Structure (SMILES) | IC50 (GSNOR) [nM] | further results
1 | O=C(O)[C@H]1CC[C@H](c2ccc3cc(O)ccc3n2)CC1 [Example 6, (1r,4r)-4-(6-hydroxyquinolin-2-yl)cyclohexanecarboxylic acid] | < 500 | 
2 | O=C(O)c1ccc(-c2ccc3cc(O)ccc3n2)c(F)c1 [Example 13, 3-fluoro-4-(6-hydroxyquinolin-2-yl)benzoic acid] |  | effects compared to roflumilast (positive control) [1]: comparable to those of roflumilast
3 | O=C(O)c1ccc(-c2nc3ccc(O)cc3cc2Cl)cc1 [Example 19, 4-(3-chloro-6-hydroxyquinolin-2-yl)benzoic acid] |  | bioavailability [2]: > 9%; decrease of percent of mice with severe colon injury scores via endoscopy [3]: 31 % of vehicle control
4 | Cc1cc(C(=O)O)ccc1-c1ccc2cc(O)ccc2n1 [Example 27, 4-(6-hydroxyquinolin-2-yl)-3-methylbenzoic acid] |  | effects compared to roflumilast (positive control) [1]: comparable to those of roflumilast
5 | O=C(O)c1ccc(-c2nc3ccc(O)cc3cc2Cl)c(F)c1 [Example 28, 4-(3-chloro-6-hydroxyquinolin-2-yl)-3-fluorobenzoic acid] |  | bioavailability [2]: > 9%
6 | O=C(O)c1ccc(-c2ccc3cc(O)ccc3n2)c(C(F)(F)F)c1 [Example 30, 4-(6-hydroxyquinolin-2-yl)-3-(trifluoromethyl)benzoic acid] | < 100 | 
7 | O=C(O)c1ccc(-c2nc3ccc(O)cc3cc2C(F)(F)F)cc1 [Example 31, 4-(6-hydroxy-3-(trifluoromethyl)quinolin-2-yl)benzoic acid] | < 100 | 
8 | O=C(O)c1ccc(-c2cc(F)c3cc(O)ccc3n2)c(Cl)c1 [Example 37, 3-chloro-4-(4-fluoro-6-hydroxyquinolin-2-yl)benzoic acid] | < 100 | 
9 | O=C(O)[C@H]1CC[C@H](c2nc3ccc(O)cc3cc2C(F)(F)F)CC1 [Example 43, (1r,4r)-4-(6-hydroxy-3-(trifluoromethyl)quinolin-2-yl)cyclohexanecarboxylic acid] | < 100 | 
10 | O=C(O)c1ccc(-c2ncc3cc(O)ccc3n2)cc1 [Example 45, 4-(6-hydroxyquinazolin-2-yl)benzoic acid] | < 100 | 
11 | O=C(O)c1ccc(-c2cc3ccc(O)cc3cn2)c(F)c1 [Example 65, 3-fluoro-4-(7-hydroxyisoquinolin-3-yl)benzoic acid] | < 100 | 

Reference: patent US9221810B2, “Substituted bicyclic aromatic compounds as S-nitrosoglutathione reductase inhibitors” (Nivalis Therapeutics, Inc., priority 2010, dated 2015)
